Data: US11147272B2, “Pyridone compounds and agricultural and horticultural fungicides comprising the same as active ingredients” (MITSUI CHEMICALS AGRO, INC., priority 2017, dated 2021)

Assays:
Magnaporthe grisea = assay: whole plant or invertebrate; format: in vivo; settings: Blast on rice; control value class
Alternaia brassicicola = assay: Test Example C: Alternaria sooty spot on cabbage; format: in vivo; settings: Alternaria sooty spot on cabbage; control value class
Source text: Seeds of a test plant (cabbage variety: Shikidori) were planted and cultivated until the cotyledons extended.
<Control Value> Control value=100{1−(n/3)}

Puccinia recondita = assay: Test Example E: Brown rust on wheat; format: in vivo; settings: Brown rust on wheat; control value class
Phytophthora infestans = assay: whole plant or invertebrate; format: in vivo; settings: Late blight on tomato; control value class
Botrytis cinerea = assay: Test Example B: Gray mold on tomato; settings: Gray mold on tomato; control value class
Plasmopara viticola = assay: Test Example G: Downy mildew on vine; settings: Downy mildew on vine; 250 ppm spray, 7 to 10 days after inoculation
[1] = system: Colletotrichum orbiculare; assay: Test Example H: Anthracnose on cucumber; settings: Anthracnose on cucumber; 250 ppm spray, 6 to 10 days after inoculation
[2] = system: Blumeria graminis f. sp. hordei; assay: Test Example D: Powdery mildew on barley; settings: Powdery mildew on barley; control value class

| Structure (SMILES) | Test A control value (Magnaporthe grisea) | Test C control value (Alternaia brassicicola) | Test E control value (Puccinia recondita) | Test F control value (Phytophthora infestans) | Test B control value (Botrytis cinerea) | Test G control value (Plasmopara viticola) | Test H control value [1] | Test D control value [2] |
| --- | --- | --- | --- | --- | --- | --- | --- | --- |
| CCCCCCCc1ccc(=O)n(CC)c1-c1ccc(F)cc1Cl [compound 266] | L (50% or less control value) | L (50% or less control value) | H (more than 50% control value) | L (50% or less control value) | L (50% or less control value) | L (50% or less control value) | H (more than 50% control value) | H (more than 50% control value) |
| CCCCCCCCCC1=C(c2ccc(F)cc2Cl)N(CC)C(=O)CC1 [compound 267] | L (50% or less control value) | L (50% or less control value) | L (50% or less control value) | L (50% or less control value) | L (50% or less control value) | L (50% or less control value) | H (more than 50% control value) | H (more than 50% control value) |
| CCCCCCCc1cc(Cl)c(=O)n(CC)c1-c1ccc(F)cc1Cl [compound 268] | L (50% or less control value) | L (50% or less control value) | L (50% or less control value) | L (50% or less control value) | L (50% or less control value) | L (50% or less control value) | L (50% or less control value) | H (more than 50% control value) |
| CCCCCCCc1cc(Br)c(=O)n(CC)c1-c1ccc(F)cc1Cl [compound 269] | L (50% or less control value) | L (50% or less control value) | L (50% or less control value) | L (50% or less control value) | L (50% or less control value) | L (50% or less control value) | L (50% or less control value) | H (more than 50% control value) |
| CCCCCCCCc1ccc(=O)n(CC)c1-c1ccc(F)cc1Cl [compound 270] | L (50% or less control value) | L (50% or less control value) | L (50% or less control value) | L (50% or less control value) | L (50% or less control value) | L (50% or less control value) | L (50% or less control value) | H (more than 50% control value) |
| CCCCCCCCc1cc(Cl)c(=O)n(CC)c1-c1ccc(F)cc1Cl [compound 271] | L (50% or less control value) | L (50% or less control value) | L (50% or less control value) | L (50% or less control value) | L (50% or less control value) | L (50% or less control value) | L (50% or less control value) | H (more than 50% control value) |
| CCCCCCCCc1cc(Br)c(=O)n(CC)c1-c1ccc(F)cc1Cl [compound 272] | L (50% or less control value) | L (50% or less control value) | H (more than 50% control value) | L (50% or less control value) | L (50% or less control value) | L (50% or less control value) | L (50% or less control value) | L (50% or less control value) |
| CCCCCCCCCc1ccc(=O)n(CC)c1-c1ccc(F)cc1Cl [compound 273] | L (50% or less control value) | L (50% or less control value) | L (50% or less control value) | L (50% or less control value) | L (50% or less control value) | L (50% or less control value) | L (50% or less control value) | H (more than 50% control value) |
| CCCCCCCCCc1cc(Cl)c(=O)n(CC)c1-c1ccc(F)cc1Cl [compound 274] | L (50% or less control value) | L (50% or less control value) | L (50% or less control value) | L (50% or less control value) | L (50% or less control value) | L (50% or less control value) | L (50% or less control value) | H (more than 50% control value) |
| CCCCCCCCCc1cc(Br)c(=O)n(CC)c1-c1ccc(F)cc1Cl [compound 275] | L (50% or less control value) | L (50% or less control value) | L (50% or less control value) | L (50% or less control value) | L (50% or less control value) | L (50% or less control value) | L (50% or less control value) | H (more than 50% control value) |
| CCCCC(O)c1cc(Cl)c(=O)n(CC)c1-c1c(F)cc(F)cc1F (stereo not drawn) [compound 276] | H (more than 50% control value) | H (more than 50% control value) | H (more than 50% control value) | L (50% or less control value) | H (more than 50% control value) | H (more than 50% control value) | L (50% or less control value) | H (more than 50% control value) |
| CCCCC(=O)c1cc(Cl)c(=O)n(CC)c1-c1c(F)cc(F)cc1F [compound 277] | H (more than 50% control value) | H (more than 50% control value) | H (more than 50% control value) | L (50% or less control value) | H (more than 50% control value) | H (more than 50% control value) | H (more than 50% control value) | H (more than 50% control value) |
| CCN1C(=O)CCC(C)=C1c1ccc(F)cc1Cl [compound 278] | L (50% or less control value) | L (50% or less control value) | L (50% or less control value) | H (more than 50% control value) | L (50% or less control value) | L (50% or less control value) | H (more than 50% control value) | L (50% or less control value) |
| CCn1c(-c2ccc(F)cc2Cl)c(C)ccc1=O [compound 279] | L (50% or less control value) | L (50% or less control value) | L (50% or less control value) | L (50% or less control value) | L (50% or less control value) | L (50% or less control value) | L (50% or less control value) | H (more than 50% control value) |
| CCn1c(-c2ccc(F)cc2Cl)c(C)cc(Cl)c1=O [compound 280] | L (50% or less control value) | L (50% or less control value) | H (more than 50% control value) | L (50% or less control value) | H (more than 50% control value) | L (50% or less control value) | H (more than 50% control value) | H (more than 50% control value) |
